Common to all, as to assay: biochemical
One test deals with D(3) dopamine receptor (Homo sapiens, UniProt P35462).
The target of the next test is T1, D(4) dopamine receptor (Homo sapiens, UniProt P21917).
T1 sequence (P21917 whole entry): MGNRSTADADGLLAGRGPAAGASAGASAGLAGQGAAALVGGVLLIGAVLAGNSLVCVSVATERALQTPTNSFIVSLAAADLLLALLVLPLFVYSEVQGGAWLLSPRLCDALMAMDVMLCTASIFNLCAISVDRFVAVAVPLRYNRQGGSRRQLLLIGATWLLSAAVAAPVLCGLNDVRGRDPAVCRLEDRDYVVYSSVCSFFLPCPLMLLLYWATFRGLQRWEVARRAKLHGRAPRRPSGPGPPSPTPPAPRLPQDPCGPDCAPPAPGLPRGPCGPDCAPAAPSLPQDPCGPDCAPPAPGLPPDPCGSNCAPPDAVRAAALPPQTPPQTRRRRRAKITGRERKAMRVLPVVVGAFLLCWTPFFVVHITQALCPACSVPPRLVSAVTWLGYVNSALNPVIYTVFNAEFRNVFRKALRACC

In another test the target is D(2) dopamine receptor (Homo sapiens, UniProt P14416).

The term Ki denotes a measure of affinity in units of concentration, obtained from inhibition or displacement.

D(2) dopamine receptor, sequence (P14416 whole entry): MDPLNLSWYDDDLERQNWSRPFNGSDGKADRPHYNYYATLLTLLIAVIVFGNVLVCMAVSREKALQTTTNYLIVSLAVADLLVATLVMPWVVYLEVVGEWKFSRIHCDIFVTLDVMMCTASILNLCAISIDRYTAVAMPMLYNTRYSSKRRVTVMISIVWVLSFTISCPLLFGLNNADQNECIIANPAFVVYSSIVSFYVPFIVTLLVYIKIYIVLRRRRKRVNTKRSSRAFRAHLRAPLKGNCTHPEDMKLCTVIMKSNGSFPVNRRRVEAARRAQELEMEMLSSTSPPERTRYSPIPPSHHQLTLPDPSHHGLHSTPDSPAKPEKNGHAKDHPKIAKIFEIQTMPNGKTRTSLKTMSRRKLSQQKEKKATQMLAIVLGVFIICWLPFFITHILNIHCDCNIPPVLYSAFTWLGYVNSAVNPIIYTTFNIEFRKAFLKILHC
D(3) dopamine receptor, sequence (P35462 whole entry): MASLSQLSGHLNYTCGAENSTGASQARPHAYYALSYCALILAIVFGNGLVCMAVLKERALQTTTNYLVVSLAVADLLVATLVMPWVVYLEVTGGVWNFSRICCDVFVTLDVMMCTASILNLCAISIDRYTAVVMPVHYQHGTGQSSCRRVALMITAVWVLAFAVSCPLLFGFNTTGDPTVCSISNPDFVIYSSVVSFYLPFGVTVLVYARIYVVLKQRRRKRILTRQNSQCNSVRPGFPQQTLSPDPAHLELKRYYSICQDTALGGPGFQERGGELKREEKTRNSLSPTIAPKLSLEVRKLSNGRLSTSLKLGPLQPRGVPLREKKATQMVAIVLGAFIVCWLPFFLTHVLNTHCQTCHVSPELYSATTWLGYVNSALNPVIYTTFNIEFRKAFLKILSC
Description for D(2) dopamine receptor: Displacement of the radioligand [3H]spiperone from the cloned human Dopamine receptor D2 long expressed in CHO cells
Description for D(3) dopamine receptor: Displacement of the radioligand [3H]YM-09151-2 from cloned human Dopamine receptor D3 expressed in CHO cells
Description for D(4) dopamine receptor: Displacement of the radioligand [3H]spiperone from the cloned human dopamine receptor D4 expressed in CHO cells

As to `c1ccc(C(c2ccccc2)N2CCN(CCCCc3cc(-c4cccs4)no3)CC2)cc1`, the Ki amounted to 52 nM at D(3) dopamine receptor, 2150 nM on D(4) dopamine receptor and 620 nM at D(2) dopamine receptor.
On the same counts, the results for `Cc1ccccc1N1CCN(CCCCc2cc(-c3cccs3)no2)CC1` are 163 nM, 465 nM and 2110 nM.
The matching figures for `O=[N+]([O-])c1cccc(-c2cc(CCCCN3CCN(c4ccccc4)CC3)on2)c1`: 60 nM, 1700 nM and 1470 nM.
The matching figures for `COc1ccc(-c2cc(CCCCN3CCN(c4ccccc4OC)CC3)on2)c(OC)c1`: 6.5 nM, 34 nM and 440 nM.
Consider `COc1ccc(-c2cc(CCCCN3CCN(C(c4ccccc4)c4ccccc4)CC3)on2)c(OC)c1`, for which the Ki on D(3) dopamine receptor turned out to be 16 nM; at D(4) dopamine receptor, 1120 nM; at D(2) dopamine receptor it was 3830 nM.
On the same counts, the results for `c1ccc(N2CCN(CCCCc3cc(-c4cccs4)no3)CC2)cc1` are 15 nM, 117 nM and 4140 nM.
The matching figures for `COc1ccccc1N1CCN(CCCCc2cc(-c3cccc([N+](=O)[O-])c3)no2)CC1`: 6 nM, 50 nM and 295 nM.
`COc1ccc(-c2cc(CCCCN3CCN(C(c4ccccc4)c4ccccc4)CC3)on2)cc1OC`: the values for the inhibitory constant (Ki) at D(3) dopamine receptor, on D(4) dopamine receptor and on D(2) dopamine receptor were 20 nM, 2440 nM and 2620 nM, respectively.
For `Fc1ccccc1N1CCN(CCCCc2cc(/C=C/c3ccccc3)no2)CC1`, the inhibitory constant (Ki) at D(3) dopamine receptor worked out at 10 nM; on D(4) dopamine receptor it was 58 nM; on D(2) dopamine receptor, 585 nM.
The matching figures for `CCOc1ccccc1N1CCN(CCCCc2cc(-c3ccccc3)no2)CC1`: 9 nM, 34 nM and 341 nM.
The matching figures for `C(=C\c1cc(CCCCN2CCN(c3ccccc3)CC2)on1)/c1ccccc1`: 27 nM, 346 nM and 9720 nM.
The matching figures for `Fc1ccc(-c2cc(CCCCN3CCN(C(c4ccccc4)c4ccccc4)CC3)on2)cc1`: 30 nM, 1350 nM and 1460 nM.
Take `COc1ccccc1N1CCN(CCCCc2cc(/C=C/c3ccccc3)no2)CC1`: the Ki is 15 nM at D(3) dopamine receptor, 88 nM at D(4) dopamine receptor and 964 nM on D(2) dopamine receptor.
On the same counts, the results for `COc1ccc(-c2cc(CCCCN3CCN(c4ccccc4F)CC3)on2)cc1OC` are 20 nM, 233 nM and 5150 nM.
On the same counts, the results for `Cc1ccccc1N1CCN(CCCCc2cc(-c3ccccc3)no2)CC1` are 292 nM, 683 nM and 6510 nM.
With `COc1ccc(-c2cc(CCCCN3CCN(c4ccccc4)CC3)on2)c(OC)c1`, the Ki at D(3) dopamine receptor stood at 16 nM; at D(4) dopamine receptor, 76 nM; at D(2) dopamine receptor, 2200 nM.
As for `COc1ccccc1N1CCN(CCCCc2cc(-c3ccc(F)cc3)no2)CC1`, the inhibitory constant (Ki) at D(3) dopamine receptor amounted to 23 nM; at D(4) dopamine receptor it was 33 nM; at D(2) dopamine receptor, 321 nM.
For the molecule `O=[N+]([O-])c1cccc(-c2cc(CCCCN3CCN(C(c4ccccc4)c4ccccc4)CC3)on2)c1`, the Ki on D(3) dopamine receptor came out at 19 nM; on D(4) dopamine receptor, 2310 nM; at D(2) dopamine receptor, 1520 nM.
On the same counts, the results for `COc1ccc(-c2cc(CCCCN3CCN(c4ccccc4C)CC3)on2)cc1OC` are 38 nM, 413 nM and 1400 nM.
The matching figures for `COc1ccccc1N1CCN(CCCCc2cc(-c3cccs3)no2)CC1`: 4.7 nM, 21 nM and 726 nM.
The matching figures for `COc1ccccc1N1CCN(CCCCc2cc(-c3ccccc3)no2)CC1`: 9.5 nM, 198 nM and 1730 nM.
On to `CCOc1ccccc1N1CCN(CCCCc2cc(-c3ccc(OC)c(OC)c3)no2)CC1`, for which the inhibitory constant (Ki) at D(3) dopamine receptor was determined as 2.6 nM; at D(4) dopamine receptor, 28 nM; on D(2) dopamine receptor, 119 nM.
The matching figures for `COc1ccc(-c2cc(CCCCN3CCN(c4ccccc4OC)CC3)on2)cc1OC`: 5.2 nM, 257 nM and 418 nM.
The matching figures for `CCOc1ccccc1N1CCN(CCCCc2cc(-c3cccs3)no2)CC1`: 3.9 nM, 12 nM and 194 nM.
The matching figures for `c1ccc(-c2cc(CCCCN3CCN(C(c4ccccc4)c4ccccc4)CC3)on2)cc1`: 15 nM, 2240 nM and 486 nM.
For the molecule `COc1ccc(-c2cc(CCCCN3CCN(c4ccccc4)CC3)on2)cc1OC`, the values for the Ki at D(3) dopamine receptor, at D(4) dopamine receptor and on D(2) dopamine receptor were 24 nM, 774 nM and 3390 nM, respectively.
The matching figures for `c1ccc(-c2cc(CCCCN3CCN(c4ccccc4)CC3)on2)cc1`: 18 nM, 541 nM and 3370 nM.
The matching figures for `Fc1ccc(-c2cc(CCCCN3CCN(c4ccccc4)CC3)on2)cc1`: 12 nM, 96 nM and 2530 nM.
The matching figures for `C(=C\c1cc(CCCCN2CCN(C(c3ccccc3)c3ccccc3)CC2)on1)/c1ccccc1`: 40 nM, 603 nM and 491 nM.
For the molecule `CCOc1ccccc1N1CCN(CCCCc2cc(-c3cccc([N+](=O)[O-])c3)no2)CC1`, the Ki was found to be 19 nM on D(3) dopamine receptor, 51 nM at D(4) dopamine receptor and 95 nM at D(2) dopamine receptor.

(Values after ChEMBL document CHEMBL1135103, “Design and synthesis of a piperazinylalkylisoxazole library for subtype selective dopamine receptor ligands” (Bioorg Med Chem Lett, 2002).)
